{"source": "ChEMBL document CHEMBL1909046", "about": "“DrugMatrix in vitro pharmacology data”"}
{"system": "not listed separately", "experiment": "DRUGMATRIX: Calcium Channel Type L, Benzothiazepine radioligand binding (ligand: [3H] Diltiazem)", "format": "cell membranes, Rattus norvegicus, Wistar, Brain, Membrane", "conditions": "Not Active = under 50% inhibition at 10 µM"}
{"compound": "NNc1ccccc1", "note": "[PHENYLHYDRAZINE]", "IC50": "Not Active", "Ki": "Not Active"}
{"compound": "IVERMECTIN", "IC50": "Not Active", "Ki": "Not Active"}
{"compound": "O=[N+]([O-])c1cc([As](=O)(O)O)ccc1O", "note": "[ROXARSONE]", "IC50": "Not Active", "Ki": "Not Active"}
{"target": "5-hydroxytryptamine receptor 6 (Homo sapiens, UniProt P50406)", "sequence (P50406 whole entry)": "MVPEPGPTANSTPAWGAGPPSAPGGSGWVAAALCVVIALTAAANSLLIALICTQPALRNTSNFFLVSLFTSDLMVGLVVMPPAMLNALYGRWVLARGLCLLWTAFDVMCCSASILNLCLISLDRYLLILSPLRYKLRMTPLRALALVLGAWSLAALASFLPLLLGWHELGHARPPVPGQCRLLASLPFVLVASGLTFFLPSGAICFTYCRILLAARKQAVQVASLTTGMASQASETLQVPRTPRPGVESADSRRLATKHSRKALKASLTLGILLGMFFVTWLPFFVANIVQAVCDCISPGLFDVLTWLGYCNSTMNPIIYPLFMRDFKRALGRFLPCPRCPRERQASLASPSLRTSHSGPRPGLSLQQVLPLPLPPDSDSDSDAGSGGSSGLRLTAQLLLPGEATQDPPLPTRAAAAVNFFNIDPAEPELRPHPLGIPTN", "format": "cell membranes, HeLa, Membrane", "conditions": "hela"}
{"compound": "NNc1ccccc1", "note": "[PHENYLHYDRAZINE]", "IC50": "Not Active"}
{"compound": "IVERMECTIN", "IC50": "Not Active", "Ki": "Not Active"}
{"compound": "O=[N+]([O-])c1cc([As](=O)(O)O)ccc1O", "note": "[ROXARSONE]", "IC50": "Not Active", "Ki": "Not Active"}
{"system": "not listed separately", "experiment": "DRUGMATRIX: GABAA, Muscimol, Central radioligand binding (ligand: [3H] Muscimol)", "format": "cell membranes, Rattus norvegicus, Wistar, Brain, Membrane", "conditions": "Not Active = under 50% inhibition at 10 µM"}
{"compound": "NNc1ccccc1", "note": "[PHENYLHYDRAZINE]", "IC50": "Not Active", "Ki": "Not Active"}
{"compound": "IVERMECTIN", "IC50": "Not Active", "Ki": "Not Active"}
{"compound": "O=[N+]([O-])c1cc([As](=O)(O)O)ccc1O", "note": "[ROXARSONE]", "IC50": "Not Active", "Ki": "Not Active"}
{"system": "not listed separately", "experiment": "DRUGMATRIX: ATPase, Na+/K+ enzyme inhibition (substrate: ATP)", "format": "tissue-based, Sus scrofa, Heart", "conditions": "Not Active = under 50% inhibition at 10 µM"}
{"compound": "NNc1ccccc1", "note": "[PHENYLHYDRAZINE]", "IC50": "Not Active", "Ki": "Not Active"}
{"compound": "IVERMECTIN", "IC50": "Not Active", "Ki": "Not Active"}
{"compound": "O=[N+]([O-])c1cc([As](=O)(O)O)ccc1O", "note": "[ROXARSONE]", "IC50": "Not Active", "Ki": "Not Active"}
{"system": "not listed separately", "experiment": "DRUGMATRIX: Nicotinic Acetylcholine radioligand binding (ligand: [125I] Epibatidine)", "format": "cell membranes, Membrane", "conditions": "imr-32; Not Active = under 50% inhibition at 10 µM"}
{"compound": "NNc1ccccc1", "note": "[PHENYLHYDRAZINE]", "IC50": "Not Active", "Ki": "Not Active"}
{"compound": "IVERMECTIN", "IC50": "Not Active", "Ki": "Not Active"}
{"compound": "O=[N+]([O-])c1cc([As](=O)(O)O)ccc1O", "note": "[ROXARSONE]", "IC50": "Not Active", "Ki": "Not Active"}
{"system": "not listed separately", "experiment": "DRUGMATRIX: Glutamate, Kainate radioligand binding (ligand: [3H] Kainic acid)", "format": "cell membranes, Rattus norvegicus, Wistar, Brain, Membrane", "conditions": "Not Active = under 50% inhibition at 10 µM"}
{"compound": "NNc1ccccc1", "note": "[PHENYLHYDRAZINE]", "IC50": "Not Active", "Ki": "Not Active"}
{"compound": "IVERMECTIN", "IC50": "Not Active", "Ki": "Not Active"}
{"compound": "O=[N+]([O-])c1cc([As](=O)(O)O)ccc1O", "note": "[ROXARSONE]", "IC50": "Not Active", "Ki": "Not Active"}
{"system": "not listed separately", "experiment": "DRUGMATRIX: Calcium Channel Type L, Phenylalkylamine radioligand binding (ligand: [3H] (-)-Desmethoxyverapamil (D-888))", "format": "cell membranes, Rattus norvegicus, Wistar, Brain, Membrane", "conditions": "Not Active = under 50% inhibition at 10 µM"}
{"compound": "NNc1ccccc1", "note": "[PHENYLHYDRAZINE]", "IC50": "Not Active", "Ki": "Not Active"}
{"compound": "IVERMECTIN", "IC50": "Not Active", "Ki": "Not Active"}
{"compound": "O=[N+]([O-])c1cc([As](=O)(O)O)ccc1O", "note": "[ROXARSONE]", "IC50": "Not Active", "Ki": "Not Active"}
{"target": "Melanocortin receptor 4 (Homo sapiens, UniProt P32245)", "sequence (P32245 whole entry)": "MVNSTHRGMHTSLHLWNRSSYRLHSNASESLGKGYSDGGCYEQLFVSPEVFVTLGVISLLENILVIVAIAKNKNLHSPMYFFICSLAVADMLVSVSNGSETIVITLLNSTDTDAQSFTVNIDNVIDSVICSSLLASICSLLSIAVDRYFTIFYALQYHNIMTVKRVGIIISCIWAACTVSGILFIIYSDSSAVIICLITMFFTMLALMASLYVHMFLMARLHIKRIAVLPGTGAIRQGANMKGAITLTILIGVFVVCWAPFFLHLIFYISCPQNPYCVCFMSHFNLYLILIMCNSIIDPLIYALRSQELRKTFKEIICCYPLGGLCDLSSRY", "format": "cell membranes, Membrane", "conditions": "hek293"}
{"compound": "NNc1ccccc1", "note": "[PHENYLHYDRAZINE]", "IC50": "Not Active"}
{"compound": "IVERMECTIN", "IC50": "Not Active", "Ki": "Not Active"}
{"compound": "O=[N+]([O-])c1cc([As](=O)(O)O)ccc1O", "note": "[ROXARSONE]", "IC50": "Not Active", "Ki": "Not Active"}
{"target": "Beta-1 adrenergic receptor (Homo sapiens, UniProt P08588)", "sequence (P08588 whole entry)": "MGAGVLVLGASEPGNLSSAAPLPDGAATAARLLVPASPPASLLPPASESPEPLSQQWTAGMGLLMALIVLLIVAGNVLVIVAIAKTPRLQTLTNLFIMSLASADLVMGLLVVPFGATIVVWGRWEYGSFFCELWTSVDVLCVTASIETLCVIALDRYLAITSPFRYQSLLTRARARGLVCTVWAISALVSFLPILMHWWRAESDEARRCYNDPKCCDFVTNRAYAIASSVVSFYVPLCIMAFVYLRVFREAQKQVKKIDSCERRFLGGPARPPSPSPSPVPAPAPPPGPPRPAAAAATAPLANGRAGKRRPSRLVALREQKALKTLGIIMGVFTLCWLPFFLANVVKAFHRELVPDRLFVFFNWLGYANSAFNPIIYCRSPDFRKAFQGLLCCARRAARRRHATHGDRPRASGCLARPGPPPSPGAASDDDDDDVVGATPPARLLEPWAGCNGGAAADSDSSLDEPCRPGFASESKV", "experiment": "DRUGMATRIX: Adrenergic beta1 radioligand binding (ligand: [125I] Cyanopindolol)", "format": "cell membranes, CHO-K1, Membrane", "conditions": "cho-k1; Not Active = under 50% inhibition at 10 µM"}
{"compound": "NNc1ccccc1", "note": "[PHENYLHYDRAZINE]", "IC50": "Not Active"}
{"compound": "IVERMECTIN", "IC50": "Not Active", "Ki": "Not Active"}
{"compound": "O=[N+]([O-])c1cc([As](=O)(O)O)ccc1O", "note": "[ROXARSONE]", "IC50": "Not Active", "Ki": "Not Active"}
{"target": "T1, Alpha-1B adrenergic receptor (Rattus norvegicus, UniProt P15823)", "T1 sequence (P15823 whole entry)": "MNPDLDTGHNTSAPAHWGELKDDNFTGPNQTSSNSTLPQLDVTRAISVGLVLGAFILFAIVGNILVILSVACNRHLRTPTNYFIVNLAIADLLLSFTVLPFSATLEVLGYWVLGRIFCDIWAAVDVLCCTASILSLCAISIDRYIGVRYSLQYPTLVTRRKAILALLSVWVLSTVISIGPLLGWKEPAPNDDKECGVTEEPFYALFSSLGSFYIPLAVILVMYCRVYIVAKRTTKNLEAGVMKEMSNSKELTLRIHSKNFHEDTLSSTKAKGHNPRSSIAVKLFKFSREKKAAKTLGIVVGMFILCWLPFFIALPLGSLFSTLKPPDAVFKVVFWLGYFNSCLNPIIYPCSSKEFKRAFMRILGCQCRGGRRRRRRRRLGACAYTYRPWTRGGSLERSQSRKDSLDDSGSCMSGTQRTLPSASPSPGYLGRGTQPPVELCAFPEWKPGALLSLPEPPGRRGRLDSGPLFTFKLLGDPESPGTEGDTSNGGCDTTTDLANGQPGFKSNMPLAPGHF", "experiment": "DRUGMATRIX: Alpha-1B adrenergic receptor radioligand binding (ligand: prazosin)", "format": "cell membranes, Wistar, Liver, Membrane", "conditions": "Not Active = under 50% inhibition at 10 µM"}
{"compound": "NNc1ccccc1", "note": "[PHENYLHYDRAZINE]", "IC50": "Not Active"}
{"compound": "IVERMECTIN", "IC50": "Not Active", "Ki": "Not Active"}
{"compound": "O=[N+]([O-])c1cc([As](=O)(O)O)ccc1O", "note": "[ROXARSONE]", "IC50": "Not Active", "Ki": "Not Active"}
{"target": "T2, Endothelin-1 receptor (Homo sapiens, UniProt P25101)", "T2 sequence (P25101 whole entry)": "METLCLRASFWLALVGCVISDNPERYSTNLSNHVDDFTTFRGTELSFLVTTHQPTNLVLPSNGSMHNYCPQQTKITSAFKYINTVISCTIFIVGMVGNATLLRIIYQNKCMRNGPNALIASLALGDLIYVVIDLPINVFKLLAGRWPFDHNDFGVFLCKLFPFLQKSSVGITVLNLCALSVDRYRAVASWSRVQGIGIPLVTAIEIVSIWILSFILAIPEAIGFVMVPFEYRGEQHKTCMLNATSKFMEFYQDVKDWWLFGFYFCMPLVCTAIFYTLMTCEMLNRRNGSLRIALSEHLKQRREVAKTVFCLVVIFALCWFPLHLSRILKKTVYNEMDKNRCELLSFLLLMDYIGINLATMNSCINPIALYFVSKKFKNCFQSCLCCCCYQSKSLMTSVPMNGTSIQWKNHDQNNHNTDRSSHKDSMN", "format": "cell membranes, Membrane", "conditions": "cho-k1"}
{"compound": "NNc1ccccc1", "note": "[PHENYLHYDRAZINE]", "IC50": "Not Active"}
{"compound": "IVERMECTIN", "IC50": "Not Active", "Ki": "Not Active"}
{"compound": "O=[N+]([O-])c1cc([As](=O)(O)O)ccc1O", "note": "[ROXARSONE]", "IC50": "Not Active", "Ki": "Not Active"}
{"target": "T3, 5-hydroxytryptamine receptor 2C (Homo sapiens, UniProt P28335)", "T3 sequence (P28335 whole entry)": "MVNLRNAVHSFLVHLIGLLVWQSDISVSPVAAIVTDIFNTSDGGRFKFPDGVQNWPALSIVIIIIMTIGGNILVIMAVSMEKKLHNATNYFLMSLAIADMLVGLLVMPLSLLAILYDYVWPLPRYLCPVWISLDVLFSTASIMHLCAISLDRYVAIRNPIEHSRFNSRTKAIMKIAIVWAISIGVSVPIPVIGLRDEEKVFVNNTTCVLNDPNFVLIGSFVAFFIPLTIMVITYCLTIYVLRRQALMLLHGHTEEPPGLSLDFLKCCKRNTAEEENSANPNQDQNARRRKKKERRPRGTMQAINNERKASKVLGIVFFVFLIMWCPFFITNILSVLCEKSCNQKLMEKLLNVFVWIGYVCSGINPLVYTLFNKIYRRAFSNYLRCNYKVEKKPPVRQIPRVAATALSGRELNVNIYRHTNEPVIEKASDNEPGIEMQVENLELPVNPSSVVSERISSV", "experiment": "DRUGMATRIX: Serotonin (5-Hydroxytryptamine) 5-HT2C radioligand binding (ligand: [3H] Mesulergine)", "format": "cell membranes, CHO-K1, Membrane", "conditions": "cho-k1; Not Active = under 50% inhibition at 10 µM"}
{"compound": "NNc1ccccc1", "note": "[PHENYLHYDRAZINE]", "IC50": "Not Active"}
{"compound": "IVERMECTIN", "IC50": "Not Active", "Ki": "Not Active"}
{"compound": "O=[N+]([O-])c1cc([As](=O)(O)O)ccc1O", "note": "[ROXARSONE]", "IC50": "Not Active", "Ki": "Not Active"}
{"target": "Sigma non-opioid intracellular receptor 1 (Homo sapiens, UniProt Q99720)", "sequence (Q99720 whole entry)": "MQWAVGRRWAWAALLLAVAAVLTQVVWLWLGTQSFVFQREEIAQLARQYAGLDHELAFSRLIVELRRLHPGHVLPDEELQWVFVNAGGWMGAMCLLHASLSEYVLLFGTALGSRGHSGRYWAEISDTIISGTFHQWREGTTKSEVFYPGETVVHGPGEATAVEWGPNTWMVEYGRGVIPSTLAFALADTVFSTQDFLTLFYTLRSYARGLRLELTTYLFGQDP", "experiment": "DRUGMATRIX: Sigma1 radioligand binding (ligand: [3H] Haloperidol)", "format": "cell membranes, Jurkat, Membrane", "conditions": "jurkat; Not Active = under 50% inhibition at 10 µM"}
{"compound": "NNc1ccccc1", "note": "[PHENYLHYDRAZINE]", "IC50": "Not Active"}
{"compound": "IVERMECTIN", "IC50": "Not Active", "Ki": "Not Active"}
{"compound": "O=[N+]([O-])c1cc([As](=O)(O)O)ccc1O", "note": "[ROXARSONE]", "IC50": "Not Active", "Ki": "Not Active"}
{"system": "not listed separately", "experiment": "DRUGMATRIX: Serotonin (5-Hydroxytryptamine) 5-HT3 radioligand binding (ligand: [3H] GR-65630)", "format": "cell membranes, Membrane", "conditions": "hek293; Not Active = under 50% inhibition at 10 µM"}
{"compound": "NNc1ccccc1", "note": "[PHENYLHYDRAZINE]", "IC50": "Not Active", "Ki": "Not Active"}
{"compound": "IVERMECTIN", "IC50": "Not Active", "Ki": "Not Active"}
{"compound": "O=[N+]([O-])c1cc([As](=O)(O)O)ccc1O", "note": "[ROXARSONE]", "IC50": "Not Active", "Ki": "Not Active"}
{"target": "T4, Neuropeptide Y receptor type 2 (Homo sapiens, UniProt P49146)", "T4 sequence (P49146 whole entry)": "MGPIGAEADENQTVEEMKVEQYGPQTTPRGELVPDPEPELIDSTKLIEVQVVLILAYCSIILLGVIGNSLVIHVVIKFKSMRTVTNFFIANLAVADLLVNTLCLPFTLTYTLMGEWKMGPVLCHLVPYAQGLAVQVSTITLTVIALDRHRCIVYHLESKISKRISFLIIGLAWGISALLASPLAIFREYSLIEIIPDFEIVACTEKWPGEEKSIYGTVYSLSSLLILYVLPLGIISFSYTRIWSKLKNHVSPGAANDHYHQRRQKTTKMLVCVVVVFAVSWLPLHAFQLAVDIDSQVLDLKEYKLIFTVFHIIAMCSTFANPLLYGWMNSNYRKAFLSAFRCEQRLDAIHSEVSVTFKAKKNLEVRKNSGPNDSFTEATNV", "format": "cell membranes, Membrane", "conditions": "kan-ts"}
{"compound": "NNc1ccccc1", "note": "[PHENYLHYDRAZINE]", "IC50": "Not Active"}
{"compound": "IVERMECTIN", "IC50": "Not Active", "Ki": "Not Active"}
{"compound": "O=[N+]([O-])c1cc([As](=O)(O)O)ccc1O", "note": "[ROXARSONE]", "IC50": "Not Active", "Ki": "Not Active"}
